Earlier results on 1 molecule are cited in publication PMC4402028 (Journal of Clinical Pharmacology, 2015).

The data set concerns MRP2. The conditions noted are these: read-out: Ki for MRP2; cited from earlier work.

For the molecule `CCCN(CCC)S(=O)(=O)c1ccc(C(=O)O)cc1` [probenecid], the Ki is 44.6 µM.
